Test results taken from patent US7326710B2, “Aralkyl formyl-alkyl piperazine derivatives and their uses as a cerebral nerve protective agent” (Shanghai Institute of Pharmaceutical Industry, priority 2002, dated 2008).

How the values were obtained:
[1] = system: primary culture of rat cerebral cortical neuronal cells; test: Effect of NMDA on neurons, LDH activity in supernatant; type: cell-based; conditions: n = 12
From the text: Primary culture of rat cerebral cortical neuronal cells were used. […] This is further evidence that IV-23 is a new NMDA receptor antagonist, and has anti-cerebral ischemic injury functions as well.

[2] = system: global cerebral ischemia in rats; test: Global cerebral ischemia in rats, bilateral common carotid artery occlusion with exsanguine hypotension; type: in vivo; conditions: reperfusion after 10 min occlusion
From the text: The animal models of the bilateral common carotid artery occlusion with exsanguine hypotension in the rats were used to investigate the effect against global cerebral ischemia.
Methods: The animals were administrated four compounds (IV-2, 23, 34, 36) orally for 3 days before the experiment. […]

[3] = system: focal cerebral ischemia in rats; test: Focal cerebral ischemia in rats by occlusion of middle cerebral artery (MCA); type: in vivo; conditions: 20 mg/kg p.o.
Method: The focal ischemia rat model by occlusion of middle cerebral artery (MCA) was used to determine the protective effects of the compounds on focal cerebral ischemia. The infarct size after focal cerebral ischemia and the weight percentage of cerebral hemisphere were calculated to evaluate the compounds' effects on focal cerebral ischemia.

[4] = system: global cerebral ischemia-reperfusion injury in rats; test: Global cerebral ischemia-reperfusion in rats, four arteries reversible occlusion; type: in vivo; conditions: Nimodipine 1 mg/kg
From the text: The effect of IV-23 on cerebral ischemia-reperfusion in rats was studied using four arteries reversible occlusion by measuring the recovering time of the electroencephalogram and the righting reflex (a short time indicates a strong effect).

[5] = system: focal cerebral ischemia in rats; test: Focal cerebral infarction, electrical coagulation to occlude MCA; type: in vivo; design: The neurological deficit score After the operation / The neurological deficit score 24 h: scale not given here; conditions: Nimodipine, dose not given
Method: a. The Focal Cerebral-Infarction of Using Electrical Coagulation to Occlude MCA:
For the 5 mg/kg group, the percentage of the rat's infarct size was decreased, but the difference is not significant (p=0.098). The effect is not significant for the Nimodipine mg/kg.

For `CN[C@H](CC(=O)O)C(=O)O` [NMDA, N-methyl-D-aspartate], which “LDH activities (U/g protein) (mean ± SEM)” value ([1]; NMDA 0.1 mmol/L) is on record?
The value was 1.51 ± 0.25 U/g protein.

And the “LDH activities (U/g protein) (mean ± SEM)” value ([1]; NMDA 0.5 mmol/L)?
The value was 1.63 ± 0.19 U/g protein.

What about the “LDH activities (U/g protein) (mean ± SEM)” value ([1]; NMDA 1 mmol/L) of the same molecule?
The value was 1.74 ± 0.17 U/g protein.

What about the “LDH activities (U/g protein) (mean ± SEM)” value ([1]; NMDA 2 mmol/L) of the same molecule?
Its value is 2.38 ± 0.31 U/g protein.

How did the “Recovery time of EEG” value ([2]; 20 mg/kg orally for 3 days) turn out when `O=C(CN1CCN(CC(O)c2ccccc2)CC1)c1ccccc1` (stereo not shown) [IV-36, N^1-phenacyl-N^4-(2-phenylethyl-2-ol) piperazine] was run?
Its value is 20.10 min.

What does the source list for `COCCOC(=O)C1=C(C)NC(C)=C(C(=O)OC(C)C)C1c1cccc([N+](=O)[O-])c1` (stereo not shown) [Nimodipine, reference compound]?
Recovery time of EEG ([2]; Nimodipine 1 mg/kg positive control): 13.49 ± 5.55 min; Infarct volume [3]: 0.188 ± 0.013 g; Neurological deficit After operation [3]: 9.3 ± 1.7; Neurological deficit 24 h ([3]; 24 h after operation): 9.0 ± 4.1; Time for electroencephalogram to disappear(S) [4]: 396.0 ± 559.8^Δ S; Time for electroencephalogram to recover (S) [4]: 3264.0 ± 336.4^Δ S; Time for righting reflex to recover (S) [4]: 1284.0 ± 1319.8^Δ S; The neurological deficit score 24 h [5]: 8.3 ± 2.0; The neurological deficit score After the operation [5]: 9.7 ± 0.5; The percentage of infarction (%) [5]: 20.5 ± 6.8 %; The weight of infarct area [5]: 0.15 ± 0.05 g
